Biological target: T1, MAGL (Homo sapiens, UniProt Q99685)
T1 sequence (Q99685 1-303): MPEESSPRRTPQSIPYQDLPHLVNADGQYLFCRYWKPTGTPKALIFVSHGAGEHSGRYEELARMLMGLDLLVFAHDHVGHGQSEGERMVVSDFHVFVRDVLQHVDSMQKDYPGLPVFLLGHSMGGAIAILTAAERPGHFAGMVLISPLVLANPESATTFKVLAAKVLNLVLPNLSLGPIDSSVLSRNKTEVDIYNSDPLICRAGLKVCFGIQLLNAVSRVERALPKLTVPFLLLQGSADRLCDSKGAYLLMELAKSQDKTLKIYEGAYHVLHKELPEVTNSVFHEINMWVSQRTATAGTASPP
Test: 2-AG assay (MAGL inhibitory activity, hydrolysis of 2-arachidonoylglycerol to arachidonic acid followed by mass spectrometry)
Format: biochemical
Details: 8 μM 2-arachidonoylglycerol, 15 min pre-incubation, 30 min incubation at RT, RapidFire MS readout
In short: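 Human MAGL ([…] final) pre-incubated 15 min at RT with compound in 50 mM TRIS, 1 mM EDTA, 0.01% Tween-20, 2.5% DMSO; 8 μM 2-AG then added for 30 min at RT. Acetonitrile quench with d8-arachidonic acid; arachidonic acid measured by RapidFire SPE–MS/MS, activity from arachidonic acid/d8 ratio.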

Row | IC50 [nM] | SMILES
1 | 4.3 | O=C(N1C[C@H]2C[C@H](Oc3ccc(OC(F)(F)F)cc3)C[C@H]2C1)N1CC2(CC(n3cnc(C4CC4)n3)C2)C1 [Example 134, [6-(3-cyclopropyl-1,2,4-triazol-1-yl)-2-azaspiro[3.3]heptan-2-yl]-[rac-(3aS,6aR)-5-[4-(trifluoromethoxy)phenoxy]-3,3a,4,5,6,6a-hexahydro-1H-cyclopenta[c]pyrrol-2-yl]methanone]
2 | 3.1 | O=C(N1C[C@H]2C[C@H](Oc3ccc(OC(F)(F)F)c(F)c3)C[C@H]2C1)N1CC2(CC(n3cnc(C4CC4)n3)C2)C1 [Example 135, [6-(3-cyclopropyl-1,2,4-triazol-1-yl)-2-azaspiro[3.3]heptan-2-yl]-[rac-(3aS,6aR)-5-[3-fluoro-4-(trifluoromethoxy)phenoxy]-3,3a,4,5,6,6a-hexahydro-1H-cyclopenta[c]pyrrol-2-yl]methanone]
3 | 14 | O=C(N1CC(OCc2cncc(C(F)(F)F)c2)C1)N1CC2(CC(n3cnc(C4CC4)n3)C2)C1 [Example 136, [6-(3-cyclopropyl-1,2,4-triazol-1-yl)-2-azaspiro[3.3]heptan-2-yl]-[3-[[5-(trifluoromethyl)-3-pyridyl]methoxy]azetidin-1-yl]methanone]
4 | 4.5 | O=C(N1CC2(CC(OCC3(C(F)(F)F)CC3)C2)C1)N1CC2(CC(n3cnc(C4CC4)n3)C2)C1 [Example 137, [6-(3-cyclopropyl-1,2,4-triazol-1-yl)-2-azaspiro[3.3]heptan-2-yl]-[6-[[1-(trifluoromethyl)cyclo-propyl]methoxy]-2-azaspiro[3.3]heptan-2-yl]methanone]
5 | 0.8 | CC1C(OCc2ccc(C(F)(F)F)cc2)CN1C(=O)N1CC2(CC(n3cnc(C4CC4)n3)C2)C1 (stereo not shown) [Example 138, [6-(3-cyclopropyl-1,2,4-triazol-1-yl)-2-azaspiro[3.3]heptan-2-yl]-[2-methyl-3-[[4-(trifluoromethyl)phenyl]methoxy]azetidin-1-yl]methanone]
6 | 11.5 | O=C(N1CC(C#Cc2ccccc2C(F)F)C1)N1CC2(CC(n3cnc(C4CC4)c3)C2)C1 [Example 139, [6-(4-cyclopropylimidazol-1-yl)-2-azaspiro[3.3]heptan-2-yl]−[3-[2-[2-(difluoromethyl)phenyl]ethynyl]azetidin-1-yl]methanone]
7 | 61.7 | O=C(N1CC(c2noc(C3(C(F)(F)F)CC3)n2)C1)N1CC2(CC(n3cnc(C4CC4)n3)C2)C1 [Example 140, [6-(3-cyclopropyl-1,2,4-triazol-1-yl)-2-azaspiro[3.3]heptan-2-yl]-[3-[5-[1-(trifluoromethyl)cyclo-propyl]-1,2,4-oxadiazol-3-yl]azetidin-1-yl]methanone]
8 | 332 | O=C(N1CC(c2noc(C3(C(F)(F)F)CC3)n2)C1)N1CC2(CC(n3cnc(C4CC4)c3)C2)C1 [Example 141]
9 | 31.3 | Cc1cc(C(=O)N2CC3(CC(n4cnc(C5CC5)c4)C3)C2)cnc1OCC1(C)CC1 [Example 142, [6-(4-cyclopropylimidazol-1-yl)-2-azaspiro[3.3]heptan-2-yl]−[5-methyl-6-[(1-methylcyclopropyl)methoxy]-3-pyridyl]methanone]
10 | 53.2 | Cc1cc(C(=O)N2CC3(CC(n4cnc(C5CC5)n4)C3)C2)cnc1OCC1(C)CC1 [Example 143, [6-(3-cyclopropyl-1,2,4-triazol-1-yl)-2-azaspiro[3.3]heptan-2-yl]-[5-methyl-6-[(1-methylcyclopropyl)methoxy]-3-pyridyl]methanone]
11 | 602 | O=C(N1CC(n2cc(OCC(F)(F)F)cn2)C1)N1CC2(CC(n3cnc(C4CC4)c3)C2)C1 [Example 144, [6-(4-cyclopropylimidazol-1-yl)-2-azaspiro[3.3]heptan-2-yl]-[3-[4-(2,2,2-trifluoroethoxy)pyrazol-1-yl]azetidin-1-yl]methanone]
12 | 541 | O=C(N1CC(c2nnc(C3(C(F)(F)F)CC3)o2)C1)N1CC2(CC(n3cnc(C4CC4)n3)C2)C1 [Example 145, [6-(3-cyclopropyl-1,2,4-triazol-1-yl)-2-azaspiro[3.3]heptan-2-yl]-[3-[5-[1-(trifluoromethyl)cyclo-propyl]-1,3,4-oxadiazol-2-yl]azetidin-1-yl]methanone]
13 | 400 | Cc1cnn(C2CC3(C2)CN(C(=O)c2ccc(-c4noc(C(C)(C)C)n4)cc2)C3)c1 [Example 146, [4-(5-tert-butyl-1,2,4-oxadiazol-3-yl)phenyl]−[6-(4-methylpyrazol-1-yl)-2-azaspiro[3.3]heptan-2-yl]methanone]
14 | 340 | Cc1cnn(C2CC3(C2)CN(C(=O)c2cnc(OCC4(C(F)(F)F)CC4)c(C)c2)C3)c1 [Example 147, [6-(4-methylpyrazol-1-yl)-2-azaspiro[3.3]heptan-2-yl]-[5-methyl-6-[[1-(trifluoromethyl)cyclopropyl]methoxy]-3-pyridyl]methanone]
15 | 1410 | Cc1ccn(C2CC3(C2)CN(C(=O)c2ccc(-c4noc(C(C)(C)C)n4)cc2)C3)n1 [Example 148, [4-(5-tert-butyl-1,2,4-oxadiazol-3-yl)phenyl]-[6-(3-methylpyrazol-1-yl)-2-azaspiro[3.3]heptan-2-yl]methanone]
16 | 441 | O=C(N1CC2(CC(n3cnc(C4CC4)n3)C2)C1)N1CCC(OCC2(C(F)(F)F)CC2)C2(CC2)C1 (stereo not shown) [Example 149, [6-(3-cyclopropyl-1,2,4-triazol-1-yl)-2-azaspiro13.31heptan-2-yl]−[8-[[1-(trifluoromethyl)cyclopropyl]methoxy]-5-azaspiro[2.5]octan-5-yl]methanone]
17 | 162 | O=C(N1CC2(CC(n3cnc(C4CC4)n3)C2)C1)N1CCC(OCC2(C(F)(F)F)CC2)C(F)(F)C1 (stereo not shown) [Example 150, [6-(3-cyclopropyl-1,2,4-triazol-1-yl)-2-azaspiro[3.3]heptan-2-yl]-[3,3-difluoro-4-[[1-(trifluoromethyl)cyclopropyl]methoxy]-1-piperidyl]methanone]
18 | 67.1 | Cc1cc(C(=O)N2CC3(CC(n4ccc(C5CC5)n4)C3)C2)cnc1OCC1(C(F)(F)F)CC1 [Example 151, [6-(3-cyclopropylpyrazol-1-yl)-2-azaspiro[3.3]heptan-2-yl]-[5-methyl-6-[[1-(trifluoromethyl)cyclopropyl]methoxy]-3-pyridyl]methanone]
19 | 312 | Cc1cc(C(=O)N2CC3(CC(n4ccc(C5CC5)n4)C3)C2)cnc1OC(C)(C)C(F)(F)F [Example 152, [6-(3-cyclopropylpyrazol-1-yl)-2-azaspiro[3.3]heptan-2-yl]-[5-methyl-6-(2,2,2-trifluoro-1,1-dimethyl-ethoxy)-3-pyridyl]methanone]
20 | 14.9 | O=C(c1cnc(OCC2(C(F)(F)F)CC2)c(C(F)(F)F)c1)N1CC2(CC(n3cnc(C4CC4)n3)C2)C1 [Example 153, [6-(3-cyclopropyl-1,2,4-triazol-1-yl)-2-azaspiro[3.3]heptan-2-yl]−[5-(trifluoromethyl)-6-[[1-(trifluoromethyl)cyclopropyl]methoxy]-3-pyridyl]methanone]
21 | 10 | O=C(c1cnc(OCC2(C(F)(F)F)CC2)c(C2COC2)c1)N1CC2(CC(n3cnc(C4CC4)n3)C2)C1 [Example 154, [6-(3-cyclopropyl-1,2,4-triazol-1-yl)-2-azaspiro[3.3]heptan-2-yl]−[5-(oxetan-3-yl)-6-[[1-(trifluoromethyl)cyclopropyl]methoxy]-3-pyridyl]methanone]
22 | 20.8 | O=C(N1CC2(CC(n3cnc(C4CC4)n3)C2)C1)C12CCC(COCC3(C(F)(F)F)CC3)(CC1)CC2 [Example 155, [6-(3-cyclopropyl-1,2,4-triazol-1-yl)-2-azaspiro[3.3]heptan-2-yl]−[4-[[1-(trifluoromethyl)cyclopropyl]methoxymethyl]-1-bicyclo[2.2.2]octanyl]methanone]
23 | 33.9 | CCc1ncn(C2CC3(C2)CN(C(=O)c2ccc(-c4noc(C(C)(C)C)n4)cc2)C3)n1 [Example 156, [4-(5-tert-butyl-1,2,4-oxadiazol-3-yl)phenyl]−[6-(3-ethyl-1,2,4-triazol-1-yl)-2-azaspiro[3.3]heptan-2-yl]methanone]
24 | 43.7 | CCc1cn(C2CC3(C2)CN(C(=O)c2ccc(-c4noc(C(C)(C)C)n4)cc2)C3)cn1 [Example 157, [4-(5-tert-butyl-1,2,4-oxadiazol-3-yl)phenyl]-[6-(4-ethylimidazol-1-yl)-2-azaspiro[3.3]heptan-2-yl]methanone]
25 | 69.1 | CC(C)(C)c1nc(-c2ccc(C(=O)N3CC4(CC(n5cnc(C(F)(F)F)c5)C4)C3)cc2)no1 [Example 158, [4-(5-tert-butyl-1,2,4-oxadiazol-3-yl)phenyl]-[6-[4-(trifluoromethyl)imidazol-1-yl]-2-azaspiro[3.3]heptan-2-yl]methanone]
26 | 315 | CC(C)(C)c1nc(-c2ccc(C(=O)N3CC4(CC(n5cnc(Cl)c5)C4)C3)cc2)no1 [Example 159, [4-(5-tert-butyl-1,2,4-oxadiazol-3-yl)phenyl]-[6-(4-chloroimidazol-1-yl)-2-azaspiro[3.3]heptan-2-yl]methanone]
27 | 1010 | CC(C)(C)c1nc(-c2ccc(C(=O)N3CC4(CC(n5cnc(C#N)c5)C4)C3)cc2)no1 [Example 160, 1-[2-[4-(5-tert-butyl-1,2,4-oxadiazol-3-yl)benzoyl]-2-azaspiro[3.3]heptan-6-yl]imidazole-4-carbonitrile]
28 | 475 | CC(C)(C)c1nc(C23CC(C(=O)N4CC5(CC(n6cnc(C7CC7)c6)C5)C4)(C2)C3)no1 [Example 162, [3-(5-tert-butyl-1,2,4-oxadiazol-3-yl)-1-bicyclo[1.1.1]pentanyl]-[6-(4-cyclopropylimidazol-1-yl)-2-azaspiro[3.3]heptan-2-yl]methanone]

Source: patent US20240199587A1, “HETEROCYCLIC COMPOUNDS” (Hoffmann-La Roche Inc., priority 2021, published 2024)
